What is called Ki is the equilibrium dissociation constant of an inhibitor or competing ligand from its target.

Six compounds from BindingDB's records for doi:10.1021/jm00128a043 (Wellcome Research Laboratories, 1989) can be followed below.

Each structure is given as a SMILES string.

The first assay in a line: Inhibition of Staphylococcus aureus DHFR.
`C=CCc1cc(Cc2cnc(N)nc2N)cc(OC)c1OC` returned a Ki of 2.8 nM.
The compound `C/C=C/c1cc(Cc2cnc(N)nc2N)cc(OC)c1OC` came in with an inhibitory constant (Ki) of 1.4 nM.
Compound `CCCOc1cc(Cc2cnc(N)nc2N)cc(OC)c1OC` registered a Ki of 1.4 nM.
In turn, `CCOc1cc(Cc2cnc(N)nc2N)cc(OC)c1OC` gave a Ki of 2.5 nM.

A further assay can be described thus: Antibacterial activity against Staphylococcus aureus.
In the case of `C=CCOc1cc(Cc2cnc(N)nc2N)cc(OC)c1OC`, the Ki was 3 nM.
Same read-out and setting: the result for `CCCc1cc(Cc2cnc(N)nc2N)cc(CCC)c1OC` reads 3.2 nM.
